What was measured:
[1] = molecular target: T1, human V2 receptor (Homo sapiens, UniProt P30518); test: Cellular in vitro assay for determining vasopressin receptor activity, V2 receptor cell line (CHO, CRE-luciferase); format: cell-based; details: CHO cell line transfected with human V2 receptor; [Arg8]-vasopressin at EC50 concentration; read-out: IC50 hV2
T1 construct: expressed in transfected cells; host or cells: CHO K1 (ATCC) expressing firefly luciferase under a CRE-responsive promoter

[2] = molecular target: T2, human V1a receptor (Homo sapiens, UniProt P37288); test: Cellular in vitro assay for determining vasopressin receptor activity, V1a receptor cell line (CHO, aequorin luminescence); format: cell-based; details: for IC50: CHO cell line transfected with human V1a receptor, [Arg]-vasopressin at EC50 concentration, read-out: IC50 hV1a; for ratio IC50 hV2/hV1a: selectivity ratio IC50 hV2 / IC50 hV1a
T2 construct: expressed in transfected cells; host or cells: CHO K1 (ATCC), also stably transfected with a modified aequorin
In short: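 Cells were plated the day before in medium containing 5 μg/ml coelenterazine and kept at 37° C. Compounds at various concentrations were then added for 10 minutes. Next, [Arg]-vasopressin at EC50 was applied and light output recorded at once, yielding IC50.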

T1 sequence (P30518 whole entry): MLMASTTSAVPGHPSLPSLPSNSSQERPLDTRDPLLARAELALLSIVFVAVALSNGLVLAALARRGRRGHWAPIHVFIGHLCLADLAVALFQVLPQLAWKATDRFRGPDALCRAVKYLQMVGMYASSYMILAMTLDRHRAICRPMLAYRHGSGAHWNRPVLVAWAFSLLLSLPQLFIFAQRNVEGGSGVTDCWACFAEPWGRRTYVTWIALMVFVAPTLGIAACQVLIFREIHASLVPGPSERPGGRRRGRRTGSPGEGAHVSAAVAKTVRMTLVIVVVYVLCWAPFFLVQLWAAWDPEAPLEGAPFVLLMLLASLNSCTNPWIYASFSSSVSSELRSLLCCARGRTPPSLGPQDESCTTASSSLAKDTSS
T2 sequence (P37288 whole entry): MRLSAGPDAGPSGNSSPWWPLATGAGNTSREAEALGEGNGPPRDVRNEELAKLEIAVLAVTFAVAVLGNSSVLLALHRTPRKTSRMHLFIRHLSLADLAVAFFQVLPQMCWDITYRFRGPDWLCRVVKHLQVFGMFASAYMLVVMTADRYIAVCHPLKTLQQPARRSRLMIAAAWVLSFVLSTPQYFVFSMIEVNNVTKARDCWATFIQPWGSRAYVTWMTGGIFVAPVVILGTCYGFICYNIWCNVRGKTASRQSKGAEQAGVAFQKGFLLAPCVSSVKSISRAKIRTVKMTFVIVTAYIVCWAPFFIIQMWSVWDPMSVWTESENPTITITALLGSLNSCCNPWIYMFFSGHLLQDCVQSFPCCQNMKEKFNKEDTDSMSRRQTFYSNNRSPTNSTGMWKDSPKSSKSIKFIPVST

Row | Compound | IC50 [1] | IC50 [2] | ratio IC50 hV2/hV1a [2]
1 | O=C(NC1(C(F)(F)F)CC1)c1ncccc1-n1cnc(Cn2nc(-c3ccc(Cl)cc3)n(C[C@@H](O)C(F)(F)F)c2=O)n1 [Example 473, 3-[3-({3-(4-Chlorophenyl)-5-oxo-4-[(2R)-3,3,3-trifluoro-2-hydroxypropyl]-4,5-dihydro-1H-1,2,4-triazol-1-yl}methyl)-1H-1,2,4-triazol-1-yl]-N-[1-(trifluoromethyl)cyclopropyl]pyridine-2-carboxamide] | 1800 nM | 92 nM | 19.6
2 | CN(CC1CC1)C(=O)c1ncccc1-n1cnc(Cn2nc(-c3ccc(Cl)cc3)n(C[C@@H](O)C(F)(F)F)c2=O)n1 [Example 482, 3-[3-({3-(4-Chlorophenyl)-5-oxo-4-[(2R)-3,3,3-trifluoro-2-hydroxypropyl]-4,5-dihydro-1H-1,2,4-triazol-1-yl}methyl)-1H-1,2,4-triazol-1-yl]-N-(cyclopropylmethyl)-N-methylpyridine-2-carboxamide] | 32000 nM | 99 nM | 323.2
3 | NC(=O)[C@H]1CC(F)(F)CN1C(=O)c1ncccc1-n1cnc(Cn2nc(-c3ccc(Cl)cc3)n(C[C@@H](O)C(F)(F)F)c2=O)n1 [Example 486, 1-({3-[3-({3-(4-Chlorophenyl)-5-oxo-4-[(2R)-3,3,3-trifluoro-2-hydroxypropyl]-4,5-dihydro-1H-1,2,4-triazol-1-yl}methyl)-1H-1,2,4-triazol-1-yl]pyridin-2-yl}carbonyl)-4,4-difluoro-D-prolinamide] | 32000 nM | 110 nM | 290.9
4 | O=C(NC1CC1)c1ccncc1-n1cnc(Cn2nc(-c3ccc(Cl)cc3)n(C[C@H](O)C(F)(F)F)c2=O)n1 [Example 488, 3-[3-({3-(4-chlorophenyl)-5-oxo-4-[(2S)-3,3,3-trifluoro-2-hydroxypropyl]-4,5-dihydro-1H-1,2,4-triazol-1-yl}methyl)-1H-1,2,4-triazol-1-yl]-N-cyclopropylpyridine-4-carboxamide] | 2000 nM | 29 nM | 69.0
5 | O=C(NCC(F)(F)F)c1ccncc1-n1cnc(Cn2nc(-c3ccc(Cl)cc3)n(C[C@H](O)C(F)(F)F)c2=O)n1 [Example 489, 3-[3-({3-(4-chlorophenyl)-5-oxo-4-[(2S)-3,3,3-trifluoro-2-hydroxypropyl]-4,5-dihydro-1H-1,2,4-triazol-1-yl}methyl)-1H-1,2,4-triazol-1-yl]-N-(2,2,2-trifluoroethyl)pyridine-4-carboxamide] | 1700 nM | 50 nM | 34.0
6 | O=C(N[C@@H]1C[C@@H]1F)c1ccncc1-n1cnc(Cn2nc(-c3ccc(Cl)cc3)n(C[C@H](O)C(F)(F)F)c2=O)n1 [Example 490, 3-[3-({3-(4-Chlorophenyl)-5-oxo-4-[(2S)-3,3,3-trifluoro-2-hydroxypropyl]-4,5-dihydro-1H-1,2,4-triazol-1-yl}methyl)-1H-1,2,4-triazol-1-yl]-N-[(1R,2S)-2-fluorocyclopropyl]pyridine-4-carboxamide] | 380 nM | 16 nM | 23.8
7 | O=C(NCCC(F)(F)F)c1ccncc1-n1cnc(Cn2nc(-c3ccc(Cl)cc3)n(C[C@H](O)C(F)(F)F)c2=O)n1 [Example 491, 3-[3-({3-(4-Chlorophenyl)-5-oxo-4-[(2S)-3,3,3-trifluoro-2-hydroxypropyl]-4,5-dihydro-1H-1,2,4-triazol-1-yl}methyl)-1H-1,2,4-triazol-1-yl]-N-(3,3,3-trifluoropropyl)pyridine-4-carboxamide] | 1300 nM | 21 nM | 61.9
8 | CC1(NC(=O)c2ccncc2-n2cnc(Cn3nc(-c4ccc(Cl)cc4)n(C[C@H](O)C(F)(F)F)c3=O)n2)CC1 [Example 492, 3-[3-({3-(4-Chlorophenyl)-5-oxo-4-[(2S)-3,3,3-trifluoro-2-hydroxypropyl]-4,5-dihydro-1H-1,2,4-triazol-1-yl}methyl)-1H-1,2,4-triazol-1-yl]-N-(1-methylcyclopropyl)pyridine-4-carboxamide] | 440 nM | 1.8 nM | 244.4
9 | O=C(NCC(F)(F)F)c1cccnc1-n1cnc(Cn2nc(-c3ccc(Cl)cc3)n(C[C@H](O)C(F)(F)F)c2=O)n1 [Example 494, 2-[3-({3-(4-chlorophenyl)-5-oxo-4-[(2S)-3,3,3-trifluoro-2-hydroxypropyl]-4,5-dihydro-1H-1,2,4-triazol-1-yl}methyl)-1H-1,2,4-triazol-1-yl]-N-(2,2,2-trifluoroethyl)pyridine-3-carboxamide] | 130 nM | 24.5 nM | 5.3
10 | CNC(=O)c1cccnc1-n1cnc(Cn2nc(-c3ccc(Cl)cc3)n(C[C@H](O)C(F)(F)F)c2=O)n1 [Example 495, 2-[3-({3-(4-chlorophenyl)-5-oxo-4-[(2S)-3,3,3-trifluoro-2-hydroxypropyl]-4,5-dihydro-1H-1,2,4-triazol-1-yl}methyl)-1H-1,2,4-triazol-1-yl]-N-methylpyridine-3-carboxamide] | 520 nM | 20 nM | 26.0
11 | O=C(NC1CC1)c1cccnc1-n1cnc(Cn2nc(-c3ccc(Cl)cc3)n(C[C@H](O)C(F)(F)F)c2=O)n1 [Example 496, 2-[3-({3-(4-chlorophenyl)-5-oxo-4-[(2S)-3,3,3-trifluoro-2-hydroxypropyl]-4,5-dihydro-1H-1,2,4-triazol-1-yl}methyl)-1H-1,2,4-triazol-1-yl]-N-cyclopropylpyridine-3-carboxamide] | 170 nM | 7.2 nM | 23.6

More lines, now with the values ahead:

Row | IC50 [1] | IC50 [2] | ratio IC50 hV2/hV1a [2] | Compound
12 | 20900 nM | 150 nM | 139.3 | O=C(c1ncccc1-n1cnc(Cn2nc(-c3ccc(Cl)cc3)n(C[C@@H](O)C(F)(F)F)c2=O)n1)N1CCCCC1 [Example 471, 5-(4-chlorophenyl)-2-({1-[2-(piperidin-1-ylcarbonyl)pyridin-3-yl]-1H-1,2,4-triazol-3-yl}methyl)-4-[(2R)-3,3,3-trifluoro-2-hydroxypropyl]-2,4-dihydro-3H-1,2,4-triazol-3-one]
13 | 66000 nM | 320 nM | 206.3 | O=C(c1ncccc1-n1cnc(Cn2nc(-c3ccc(Cl)cc3)n(C[C@@H](O)C(F)(F)F)c2=O)n1)N1CCOCC1 [Example 472, 5-(4-Chlorophenyl)-2-({1-[2-(morpholin-4-ylcarbonyl)pyridin-3-yl]-1H-1,2,4-triazol-3-yl}methyl)-4-[(2R)-3,3,3-trifluoro-2-hydroxypropyl]-2,4-dihydro-3H-1,2,4-triazol-3-one]
14 | 22500 nM | 24 nM | 937.5 | CC1(C)COCCN1C(=O)c1ncccc1-n1cnc(Cn2nc(-c3ccc(Cl)cc3)n(C[C@H](O)C(F)(F)F)c2=O)n1 [Example 474, 5-(4-Chlorophenyl)-2-[(1-{2-[(3,3-dimethylmorpholin-4-yl)carbonyl]pyridin-3-yl}-1H-1,2,4-triazol-3-yl)methyl]-4-[(2S)-3,3,3-trifluoro-2-hydroxypropyl]-2,4-dihydro-3H-1,2,4-triazol-3-one]
15 | 66000 nM | 90 nM | 733.3 | CC1(C)COCCN1C(=O)c1ncccc1-n1cnc(Cn2nc(-c3ccc(Cl)cc3)n(C[C@@H](O)C(F)(F)F)c2=O)n1 [Example 475, 5-(4-Chlorophenyl)-2-[(1-{2-[(3,3-dimethylmorpholin-4-yl)carbonyl]pyridin-3-yl}-1H-1,2,4-triazol-3-yl)methyl]-4-[(2R)-3,3,3-trifluoro-2-hydroxypropyl]-2,4-dihydro-3H-1,2,4-triazol-3-one]
16 | 11000 nM | 460 nM | 23.9 | O=C(c1ncccc1-n1cnc(Cn2nc(-c3ccc(Cl)cc3)n(C[C@@H](O)C(F)(F)F)c2=O)n1)N1CCC[C@H]1C(F)(F)F [Example 477, 5-(4-Chlorophenyl)-4-[(2R)-3,3,3-trifluoro-2-hydroxypropyl]-2-{[1-(2-{[(2S)-2-(trifluoromethyl)pyrrolidin-1-yl]carbonyl}pyridin-3-yl)-1H-1,2,4-triazol-3-yl]methyl}-2,4-dihydro-3H-1,2,4-triazol-3-one]
17 | 7800 nM | 290 nM | 26.9 | O=C(c1ncccc1-n1cnc(Cn2nc(-c3ccc(Cl)cc3)n(C[C@@H](O)C(F)(F)F)c2=O)n1)N1CCC[C@@H]1C(F)(F)F [Example 478, 5-(4-Chlorophenyl)-4-[(2R)-3,3,3-trifluoro-2-hydroxypropyl]-2-{[1-(2-{[(2R)-2-(trifluoromethyl)pyrrolidin-1-yl]carbonyl}pyridin-3-yl)-1H-1,2,4-triazol-3-yl]methyl}-2,4-dihydro-3H-1,2,4-triazol-3-one]
18 | 32000 nM | 1400 nM | 22.9 | O=C(c1ncccc1-n1cnc(Cn2nc(-c3ccc(Cl)cc3)n(C[C@@H](O)C(F)(F)F)c2=O)n1)N1CCS(=O)(=O)CC1 [Example 479, 5-(4-Chlorophenyl)-2-[(1-{2-[(1,1-dioxidothiomorpholin-4-yl)carbonyl]pyridin-3-yl}-1H-1,2,4-triazol-3-yl)methyl]-4-[(2R)-3,3,3-trifluoro-2-hydroxypropyl]-2,4-dihydro-3H-1,2,4-triazol-3-one]
19 | 3950 nM | 37 nM | 106.8 | CC1(NC(=O)c2ncccc2-n2cnc(Cn3nc(-c4ccc(Cl)cc4)n(C[C@@H](O)C(F)(F)F)c3=O)n2)CC1 [Example 483, 3-[3-({3-(4-Chlorophenyl)-5-oxo-4-[(2R)-3,3,3-trifluoro-2-hydroxypropyl]-4,5-dihydro-1H-1,2,4-triazol-1-yl}methyl)-1H-1,2,4-triazol-1-yl]-N-(1-methylcyclopropyl)pyridine-2-carboxamide]
